The text below walks through data of US20230365563A1, “QUINAZOLINE COMPOUND AND APPLICATION THEREOF” (SHANGHAI PHARMACEUTICALS HOLDING CO., LTD., priority 2020, published 2023).

pIC50: −log10 of the molar value. Structures can show the parent of a compound that is named as a salt.

One experiment has as its target T1, KRAS-G12D and SOS1 (Homo sapiens, UniProt P01116, G12D).
T1 construct: purchased
The experiment can be described thus: Inhibition of KRAS-G12D/SOS1 binding (Cisbio binding kit, 665/615 ratio), Effect Embodiment A. To be noted: read-out: GTP-KRAS-G12D:SOS1 IC50. The method, boiled down: (§1)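 Duplicate wells received an eleven-point, threefold compound titration whose top point was the stock solution; final DMSO 1%.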

Another experiment concerns the target T2, KRAS_G12D and cRAF (Homo sapiens, UniProt P01116, G12D).
T2 construct: purchased
Nature of the experiment: Inhibition of KRAS_G12D/cRAF binding (Cisbio binding kit, 665/615 ratio), Effect Embodiment B. To be noted: read-out: GTP-KRAS-G12D:CRAF IC50. The method, boiled down:
as §1

Another experiment concerns the target T3, KRAS_WT and SOS1 (Homo sapiens, UniProt P01116).
T3 construct: purchased
The experiment can be described thus: Inhibition of KRAS_WT/SOS1 binding (Cisbio binding kit, 665/615 ratio), Effect Embodiment C. To be noted: read-out: GTP-KRAS-WT:SOS1 IC50. On the procedure:
The inhibitory ability of small molecule compounds on the binding activity of KRAS_WT and SOS1 was examined by a drug screening system based on the combination of KRAS_WT and SOS1.
Similarly, the first dilution point of the compound to be tested was its storage solution, and the solution was 3-fold diluted, with 11+0 points of dilution. Echo was used to transfer 0.2 μL gradient diluted solution of the compounds into a 384-well plate, with 2 duplicated wells for each compound, and the final concentration of DMSO was 1%. The solution was centrifuged for 1 min at 1000 rpm/min.
IC50 of the compounds was fitted by Graphpad Prism 8 nonlinear regression equation: […]
The IC50 (half inhibitory concentration) of the compound was obtained by using the following nonlinear fitting formula: […]

T3 sequence (P01116 1-188 isoform P01116-2): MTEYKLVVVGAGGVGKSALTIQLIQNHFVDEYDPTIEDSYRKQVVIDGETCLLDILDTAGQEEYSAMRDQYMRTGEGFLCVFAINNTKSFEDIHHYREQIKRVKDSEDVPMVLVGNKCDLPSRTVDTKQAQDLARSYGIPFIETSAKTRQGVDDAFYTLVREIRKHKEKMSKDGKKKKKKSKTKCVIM
T2 sequence (P01116 1-188 isoform P01116-2 G12D): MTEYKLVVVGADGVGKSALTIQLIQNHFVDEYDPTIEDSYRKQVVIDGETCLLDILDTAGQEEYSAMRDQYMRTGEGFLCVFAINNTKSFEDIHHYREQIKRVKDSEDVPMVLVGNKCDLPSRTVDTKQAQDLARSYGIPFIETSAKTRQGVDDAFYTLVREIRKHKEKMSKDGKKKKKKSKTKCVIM
T1 sequence (P01116 1-188 isoform P01116-2 G12D): as above

Regarding `CN1CCCC[C@H]1COc1nc(N2CC3CCC(C2)N3)c2cc(Cl)c(-c3cc(O)cc4ccccc34)c(F)c2n1` (single isomer, unassigned) [Compound 56a, 4-((S or R)-4-((1R,5S)-3,8-diazabicyclo[3.2.1]octan-3-yl)-6-chloro-8-fluoro-2-((S)-1-methylpiperidin-2-yl)methoxy)quinazolin-7-yl)naphthalen-2-ol dihydrochloride], the pIC50 on KRAS-G12D and SOS1 was 7.19; on KRAS_G12D and cRAF it was 6.34; at KRAS_WT and SOS1, 4.86.
For `Oc1cc(-c2c(Cl)cc3c(N4CC5CCC(C4)N5)nc(N4CCNCC4)nc3c2F)c2ccccc2c1` (single isomer, unassigned) [Compound 57b, 4-((R or S)-4-((1R,5S)-3,8-diazabicyclo[3.2.1]octan-3-yl)-6-chloro-8-fluoro-2-(piperazin-1-yl)quinazolin-7-yl)naphthalen-2-ol], in that order: 6.38, 5.10 and 4.35.
For `Oc1cc(-c2c(Cl)cc3c(N4CC5CCC(C4)N5)nc(OCC45CCCN4CCC5)nc3c2F)c2ccccc2c1` (single isomer, unassigned) [Compound 58a, 4-((S or R)-4-((1R,5S)-3,8-diazabicyclo[3.2.1]octan-3-yl)-6-chloro-8-fluoro-2-((tetrahydro-1H-pyrrolin-7a(5H)-yl)methoxy)quinazolin-7-yl)naphthalen-2-o1], in that order: 7.69, 7.90 and 7.33.
In the case of `Oc1cc(-c2c(Cl)cc3c(N4CC5CCC(C4)N5)nc(OCCCN4CCC4)nc3c2F)c2ccccc2c1` (single isomer, unassigned) [Compound 59a, 4-((S or R)-2-(3-(azetidin-1-yl)propoxy)-4-((1R,5S)-3,8-diazabicyclo[3.2.1]octan-3-yl)-6-chloro-8-fluoroquinazolin-7-yl)naphthalen-2-ol], the pIC50 on KRAS-G12D and SOS1 is 7.34; at KRAS_G12D and cRAF, 6.74; on KRAS_WT and SOS1, 5.68.
For `CN(C)CCCCOc1nc(N2CC3CCC(C2)N3)c2cc(Cl)c(-c3cc(O)cc4ccccc34)c(F)c2n1` (single isomer, unassigned) [Compound 60a, 4-((S or R)-4-((1R,5S)-3,8-diazabicyclo[3.2.1]octan-3-yl)-6-chloro-2-(4-(dimethylamino)butoxy)-8-fluoroquinazolin-7-yl)naphthalen-2-ol], in that order: 7.20, 6.45 and 5.23.
For the molecule `CN1CCC2(C1)CN(c1nc(N3CC4CCC(C3)N4)c3cc(Cl)c(-c4cc(O)cc5ccccc45)c(F)c3n1)C2` (single isomer, unassigned) [Compound 61a, 4-((S or R)-4-((1R,5S)-3,8-diazabicyclo[3.2.1]octan-3-yl)-6-chloro-8-fluoro-2-(6-methyl-2,6-diazaspiro[3.4]octan-2-yl)quinazolin-7-yl)naphthalen-2-ol], the pIC50 at KRAS-G12D and SOS1 was 6.64; at KRAS_G12D and cRAF, 5.80; at KRAS_WT and SOS1, 4.17.
Turning to `Oc1cc(-c2c(Cl)cc3c(N4CC5CCC(C4)N5)nc(OCCCN4CCCC4)nc3c2F)c2ccccc2c1` (single isomer, unassigned) [Compound 63a, 4-((S or R)-4-((1R,5S)-3,8-diazabicyclo[3.2.1]octan-3-yl)-6-chloro-8-fluoro-2-(3-(pyrrolidin-1-yl)propoxy)quinazolin-7-yl)naphthalen-2-ol], the pIC50 on KRAS-G12D and SOS1 was 7.75; on KRAS_G12D and cRAF, 6.87; on KRAS_WT and SOS1, 5.80.
With `CN(C)C1CN(c2nc(N3CC4CCC(C3)N4)c3cc(Cl)c(-c4cc(O)cc5cccc(F)c45)c(F)c3n2)C1` (single isomer, unassigned) [Compound 64b, 4-((R or S)-4-((1R,5S)-3,8-diazabicyclo[3.2.1]octan-3-yl)-6-chloro-2-(3-(dimethylamino)azetidin-1-yl)-8-fluoroquinazolin-7-yl)-5-fluoronaphthalen-2-ol], the pIC50 at KRAS-G12D and SOS1 is 7.35; at KRAS_G12D and cRAF it was 6.55; at KRAS_WT and SOS1, 5.90.
Regarding `CN(C)C1CN(c2nc(N3CC4CCC(C3)N4)c3cc(Cl)c(-c4cc(O)cc5cccc(Cl)c45)c(F)c3n2)C1` (single isomer, unassigned) [Compound 65b, 4-((R or S)-4-((1R,5S)-3,8-diazabicyclo[3.2.1]octan-3-yl)-6-chloro-2-(3-(dimethylamino)azetidin-1-yl)-8-fluoroquinazolin-7-yl)-5-chloronaphthalen-2-ol], the pIC50 was 7.07 on KRAS-G12D and SOS1; 6.36 at KRAS_G12D and cRAF; 6.57 at KRAS_WT and SOS1.
Turning to `Oc1cc(-c2c(Cl)cc3c(N4CC5CCC(C4)N5)nc(OCCCN4CCCCC4)nc3c2F)c2ccccc2c1` (single isomer, unassigned) [Compound 66a, 4-((S or R)-4-((1R,5S)-3,8-diazabicyclo[3.2.1]octan-3-yl)-6-chloro-8-fluoro-2-(3-(piperidin-1-yl)propoxy)quinazolin-7-yl)naphthalen-2-ol], the pIC50 on KRAS-G12D and SOS1 is 7.42; on KRAS_G12D and cRAF, 6.86; on KRAS_WT and SOS1, 5.99.
For `CN(C)CCCCCCOc1nc(N2C[C@H]3CC[C@@H](C2)N3)c2cc(Cl)c(-c3cc(O)cc4ccccc34)c(F)c2n1` (single isomer, unassigned) [Compound 68, (S or R)-4-(4-((1R,5S)-3,8-diazabicyclo[3.2.1]octan-3-yl)-6-chloro-2-((6-(dimethylamino)hexyl)oxy)-8-fluoroquinazolin-7-yl)naphthalen-2-ol dihydrochloride], in that order: 6.67, 6.19 and 4.78.
For `CN(C)[C@H]1C[C@@H](Oc2nc(N3CC4CCC(C3)N4)c3cc(Cl)c(-c4cc(O)cc5ccccc45)c(F)c3n2)C1` (single isomer, unassigned) [Compound 69a, 4-((S or R)-4-((1R,5S)-3,8-diazabicyclo[3.2.1]octan-3-yl)-6-chloro-2-((1S,3R)-3-(dimethylamino)cyclobutoxy)-8-fluoroquinazolin-7-yl)naphthalen-2-ol dihydrochloride], in that order: 6.65, 5.73 and under 4.00.
Regarding `CN(C)[C@H]1C[C@H](Oc2nc(N3CC4CCC(C3)N4)c3cc(Cl)c(-c4cc(O)cc5ccccc45)c(F)c3n2)C1` (single isomer, unassigned) [Compound 69b, 4-((S or R)-4-((1R,5S)-3,8-diazabicyclo[3.2.1]octan-3-yl)-6-chloro-2-((1R,3S)-3-(dimethylamino)cyclobutoxy)-8-fluoroquinazolin-7-yl)naphthalen-2-ol dihydrochloride], the pIC50 on KRAS-G12D and SOS1 is 6.80; at KRAS_G12D and cRAF, 5.71; at KRAS_WT and SOS1, under 4.00.
For `CN(C)C1CCC(Oc2nc(N3CC4CCC(C3)N4)c3cc(Cl)c(-c4cc(O)cc5ccccc45)c(F)c3n2)C1` (single isomer, unassigned) [Compound 70a, 4-((S or R)-4-((1R,5S)-3,8-diazabicyclo[3.2.1]octan-3-yl)-6-chloro-2-((1S,3R or 1R,3S)-3-(dimethylamino)cyclopentyl)oxy)-8-fluoroquinazolin-7-yl)naphthalen-2-ol dihydrochloride], in that order: 7.03, 6.23 and under 4.00.
For `CN(C)C1CCC(Oc2nc(N3CC4CCC(C3)N4)c3cc(Cl)c(-c4cc(O)cc5ccccc45)c(F)c3n2)C1` (single isomer, unassigned) [Compound 70b, 4-((S or R)-4-((1R,5S)-3,8-diazabicyclo[3.2.1]octan-3-yl)-6-chloro-2-((1R,3S or 1S,3R)-3-(dimethylamino)cyclopentyl)oxy)-8-fluoroquinazolin-7-yl)naphthalen-2-ol dihydrochloride], in that order: 7.18, 6.29 and under 4.00.
As to `CN(C)C1CCC(Oc2nc(N3CC4CCC(C3)N4)c3cc(Cl)c(-c4cc(O)cc5ccccc45)c(F)c3n2)C1` (single isomer, unassigned) [Compound 70c, 4-((S or R)-4-((1R,5S)-3,8-diazabicyclo[3.2.1]octan-3-yl)-6-chloro-2-((1S,3S or 1R,3R)-3-(dimethylamino)cyclopentyl)oxy)-8-fluoroquinazolin-7-yl)naphthalen-2-ol dihydrochloride], the pIC50 at KRAS-G12D and SOS1 was 7.13; at KRAS_G12D and cRAF, 6.38; on KRAS_WT and SOS1, 4.42.
For `CN(C)C1CCC(Oc2nc(N3CC4CCC(C3)N4)c3cc(Cl)c(-c4cc(O)cc5ccccc45)c(F)c3n2)C1` (single isomer, unassigned) [Compound 70d, 4-((S or R)-4-((1R,5S)-3,8-diazabicyclo[3.2.1]octan-3-yl)-6-chloro-2-((1R,3R or 1S,3S)-3-(dimethylamino)cyclopentyl)oxy)-8-fluoroquinazolin-7-yl)naphthalen-2-ol dihydrochloride], in that order: 7.03, 6.45 and 4.22.
Turning to `CN1CCC[C@H]1COc1nc(N2CC3CCC(C2)N3)c2cc(Cl)c(-c3cc(O)c(F)c4ccccc34)c(F)c2n1` (single isomer, unassigned) [Compound 89a, (S or R)-4-(4-((1R,5S)-3,8-diazabicyclo[3.2.1]octan-3-yl)-6-chloro-8-fluoro-2-(S)-1-methylpyrrolidin-2-yl)methoxy)quinazolin-7-yl)-1-fluoronaphthalen-2-ol hydrochloride], the pIC50 at KRAS-G12D and SOS1 is 7.32; on KRAS_G12D and cRAF, 6.96; on KRAS_WT and SOS1, 5.66.

As usually defined, the pIC50 is −log10 of the IC50, conventionally taken in molar units.
